23 molecules from patent publication US20230312528A1, “2-OXO-IMIDAZOLIDINE-4-CARBOXAMIDES AS NAV1.8 INHIBITORS” (Merck Sharp & Dohme LLC, priority 2020, published 2023) can be followed below.

The target in the assay is human NaV1.8 (Homo sapiens (Human), UniProt Q9Y5Y9). The assay is described as follows: Nav1.8 Qube automated patch-clamp assay. It is filed as cell-based. The conditions noted are these: human NaV1.8 stably expressed in HEK 293 cells; automated 384-well patch-clamp; resting or inactivated state not specified. The method, then:
Compounds were tested on human NaV1.8 and NaV1.5 channels stably expressed in human embryo kidney (HEK) 293 cells. Sodium current measurements on Qube® were conducted as follows: automated 384-well patch-clamp assays on the Qube® platform (Sophion Biosciences) were used to measure the inhibition of sodium flow through human NaV1.8 and NaV1.5 channels. Whole-cell voltage-clamp recordings were performed in QChips® (Sophion Biosciences) at room temperature. NaV1.8 current measurements on Qube® were obtained as follows: NaV1.8 currents were elicited with a 10 second 1 Hertz (Hz) pulse train from a holding potential of −90 millivolts (mV), delivered to the cells once per minute in the control condition (DMSO only) and after compound addition. The 1 hertz pulse train stimulation consisted of ten test pulses to 10 millivolt (mV) for 20 milliseconds (ms), each of which was followed by a 980 millisecond repolarization to −67 millivolts. At the end of the 10 second pulse train stimulation, a 5 second hyperpolarization step to −100 millivolt (mV) was used to recover NaV1.8 from fast inactivation. The peak currents elicited by the 1st and 10th test pulses were used to determine IC50 values for resting inhibition and inactivated state inhibition. NaV1.5 current measurements on Qube® were obtained as follows: NaV1.5 currents were elicited with a 20 second 3 Hertz pulse train in the control condition (DMSO only) and after compound addition. The pulse train consisted of sixty 20 millisecond test pulses to 0 millivolt from a holding potential of −80 millivolt (mV). The average peak currents elicited by the last 3 test pulses were used to determine IC50 values for NaV1.5 inhibition.
The following buffers were used for the Qube® recordings: External buffer for NaV1.8 Qube® recording: 150 NaCl, 2 CaCl2, 5 KCl, 1 Mg Cl2, 10 HEPES, 12 Dextrose; External buffer for Qube® NaV1.5 recording: 120 N-Methyl-D-Glucamine, 40 NaCl, 1 KCl, 2.7 CaCl2, 5 HEPES, 0.5 MgCl2; and Internal buffer for Qube® recording: 120 CsF, 30 CsCl, 10 EGTA, 5 HEPES, 5 NaF, 2 MgCl2.
For all Qube® experiments offline analysis was used to determine percent inhibition as a function of drug concentration. IC50 values were determined by fitting to the Hill equation.

Sequence of human NaV1.8 (Q9Y5Y9 whole entry): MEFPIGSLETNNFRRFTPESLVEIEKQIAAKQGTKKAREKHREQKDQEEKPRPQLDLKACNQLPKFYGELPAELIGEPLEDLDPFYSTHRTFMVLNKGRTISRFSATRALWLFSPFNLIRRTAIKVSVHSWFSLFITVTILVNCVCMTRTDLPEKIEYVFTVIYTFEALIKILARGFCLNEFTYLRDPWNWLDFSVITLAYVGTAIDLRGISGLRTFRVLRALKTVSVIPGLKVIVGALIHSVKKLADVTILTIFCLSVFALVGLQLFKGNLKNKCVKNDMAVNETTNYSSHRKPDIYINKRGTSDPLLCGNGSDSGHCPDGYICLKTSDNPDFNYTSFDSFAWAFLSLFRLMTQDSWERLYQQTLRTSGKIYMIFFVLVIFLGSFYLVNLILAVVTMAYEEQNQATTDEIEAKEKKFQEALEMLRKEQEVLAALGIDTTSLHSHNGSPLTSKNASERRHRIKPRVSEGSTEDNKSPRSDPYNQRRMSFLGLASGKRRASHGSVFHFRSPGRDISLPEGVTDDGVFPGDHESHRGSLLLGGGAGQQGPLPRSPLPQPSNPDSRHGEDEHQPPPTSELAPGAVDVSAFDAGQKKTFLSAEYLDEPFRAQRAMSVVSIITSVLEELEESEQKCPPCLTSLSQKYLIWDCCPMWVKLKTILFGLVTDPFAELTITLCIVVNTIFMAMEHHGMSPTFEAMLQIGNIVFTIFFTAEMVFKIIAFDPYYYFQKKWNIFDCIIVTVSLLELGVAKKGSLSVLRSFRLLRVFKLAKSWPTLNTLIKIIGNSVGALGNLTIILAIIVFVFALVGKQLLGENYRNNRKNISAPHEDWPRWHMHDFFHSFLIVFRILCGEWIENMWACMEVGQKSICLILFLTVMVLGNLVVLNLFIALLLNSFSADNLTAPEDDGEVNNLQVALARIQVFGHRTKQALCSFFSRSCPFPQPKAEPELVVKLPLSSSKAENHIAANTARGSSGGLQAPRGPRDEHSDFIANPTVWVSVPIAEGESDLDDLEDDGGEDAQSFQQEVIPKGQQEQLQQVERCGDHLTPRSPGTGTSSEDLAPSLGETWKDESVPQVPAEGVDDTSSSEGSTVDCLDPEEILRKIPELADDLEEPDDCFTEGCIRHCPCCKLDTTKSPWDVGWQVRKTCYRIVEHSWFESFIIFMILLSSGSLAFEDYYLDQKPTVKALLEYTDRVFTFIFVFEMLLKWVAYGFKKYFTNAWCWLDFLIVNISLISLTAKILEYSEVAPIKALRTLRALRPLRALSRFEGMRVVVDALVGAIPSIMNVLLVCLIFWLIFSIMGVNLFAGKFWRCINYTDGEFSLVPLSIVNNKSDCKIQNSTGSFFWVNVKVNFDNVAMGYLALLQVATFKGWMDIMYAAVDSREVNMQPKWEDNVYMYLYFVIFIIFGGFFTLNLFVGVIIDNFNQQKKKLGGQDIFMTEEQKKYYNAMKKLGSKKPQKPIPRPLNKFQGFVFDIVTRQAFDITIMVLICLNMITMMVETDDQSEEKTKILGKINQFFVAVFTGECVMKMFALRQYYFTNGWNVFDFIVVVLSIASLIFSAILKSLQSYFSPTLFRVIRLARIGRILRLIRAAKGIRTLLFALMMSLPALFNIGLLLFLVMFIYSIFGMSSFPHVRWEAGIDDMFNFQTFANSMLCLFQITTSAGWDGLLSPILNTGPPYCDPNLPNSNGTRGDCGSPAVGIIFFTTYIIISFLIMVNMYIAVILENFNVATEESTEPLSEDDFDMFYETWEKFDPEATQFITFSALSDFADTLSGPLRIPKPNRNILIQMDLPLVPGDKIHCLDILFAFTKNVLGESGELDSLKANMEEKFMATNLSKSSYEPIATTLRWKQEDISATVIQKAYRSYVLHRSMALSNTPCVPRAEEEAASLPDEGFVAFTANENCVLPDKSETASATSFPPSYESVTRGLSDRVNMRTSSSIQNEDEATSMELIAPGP

Usually IC50 stands for the midpoint of a concentration-inhibition curve. High values mean a need for much substance, low ones inhibition by little substance. In turn, `O=C1NC[C@@H](C(=O)NC(CC2CCC(C(F)(F)F)CC2)c2ccc(F)c(Cl)c2F)N1` (single isomer, unassigned) [Example 23A, (S)—N—((R or S)-1-(3-chloro-2,4-difluorophenyl)-2-((cis or trans)-4-(trifluoromethyl)cyclohexyl)ethyl)-2-oxoimidazolidine-4-carboxamide] came in with an IC50 of 15 nM.

For `O=C1NC[C@@H](C(=O)NC(CC2CCC(C(F)(F)F)CC2)c2ccc(F)c(Cl)c2F)N1` (single isomer, unassigned) [Example 23B, (S)—N—((R or S)-1-(3-chloro-2,4-difluorophenyl)-2-((cis or trans)-4-(trifluoro-methyl)cyclohexyl)ethyl)-2-oxoimidazolidine-4-carboxamide], the IC50 was 4.9 nM. This IC50 lies about 3.1-fold lower than the previous one.

The molecule `O=C1NC[C@@H](C(=O)NC(CC2CCC(C(F)(F)F)CC2)c2ccc(F)c(Cl)c2F)N1` (single isomer, unassigned) [Example 23C, (S)—N—((R or S)-1-(3-chloro-2,4-difluorophenyl)-2-((cis or trans)-4-(trifluoromethyl)cyclohexyl)ethyl)-2-oxoimidazolidine-4-carboxamide] had an IC50 of 62 nM.

For `O=C1NC[C@@H](C(=O)NC(CC2CCC(C(F)(F)F)CC2)c2ccc(F)c(Cl)c2F)N1` (single isomer, unassigned) [Example 23D, (S)—N—((R or S)-1-(3-chloro-2,4-difluorophenyl)-2-((cis or trans)-4-(trifluoromethyl)cyclohexyl)ethyl)-2-oxoimidazolidine-4-carboxamide], the IC50 is 190 nM. Compared with the last molecule, the IC50 is about 3.1-fold higher.

`O=C1NC[C@@H](C(=O)NC(c2ccc(OC(F)(F)F)nc2)c2ccc(F)c(Cl)c2F)N1` (single isomer, unassigned) [Example 24A, (4S)-N-{(R or S)-(3-chloro-2,4-difluorophenyl)[6-(trifluoromethoxy)pyridin-3-yl]methyl}-2-oxoimidazolidine-4-carboxamide] displayed an IC50 of 3.1 nM.

Take `O=C1NC[C@@H](C(=O)NC(c2ccc(OC(F)(F)F)nc2)c2ccc(F)c(Cl)c2F)N1` (single isomer, unassigned) [Example 24B, (4S)-N-{(R or S)-(3-chloro-2,4-difluorophenyl)[6-(trifluoromethoxy)pyridin-3-yl]methyl}-2-oxoimidazolidine-4-carboxamide]: the IC50 was determined as 41 nM.

With `O=C1NC[C@@H](C(=O)NC(CC2CCC(F)(F)CC2)c2ccc(F)c(Cl)c2F)N1` (single isomer, unassigned) [Example 25A, (S)-N-((R or S)-1-(3-chloro-2,4-difluorophenyl)-2-(4,4-difluorocyclohexyl)ethyl)-2-oxoimidazolidine-4-carboxamide], the IC50 came to 22 nM.

On to `O=C1NC[C@@H](C(=O)NC(CC2CCC(F)(F)CC2)c2ccc(F)c(Cl)c2F)N1` (single isomer, unassigned) [Example 25B, (S)-N-((R or S)-1-(3-chloro-2,4-difluorophenyl)-2-(4,4-difluorocyclohexyl)ethyl)-2-oxoimidazolidine-4-carboxamide], for which half-maximal inhibition (IC50) was put at 189 nM.

In the case of `O=C1NC[C@@H](C(=O)NC(CC2CCCOC2)c2ccc(F)c(Cl)c2F)N1` (single isomer, unassigned) [Example 26A, (S)-N-((R or S)-1-(3-chloro-2,4-difluorophenyl)-2-((R or S)-tetrahydro-2H-pyran-3-yl)ethyl)-2-oxoimidazolidine-4-carboxamide], the IC50 is 413 nM.

`O=C1NC[C@@H](C(=O)NC(CC2CCCOC2)c2ccc(F)c(Cl)c2F)N1` (single isomer, unassigned) [Example 26B, (S)-N-((R or S)-1-(3-chloro-2,4-difluorophenyl)-2-((R or S)-tetrahydro-2H-pyran-3-yl)ethyl)-2-oxoimidazolidine-4-carboxamide] returned an IC50 of 22200 nM.

With `O=C1NC[C@@H](C(=O)NC(CC2CCCOC2)c2ccc(F)c(Cl)c2F)N1` (single isomer, unassigned) [Example 26C, (S)-N-((R or S)-1-(3-chloro-2,4-difluorophenyl)-2-((R or S)-tetrahydro-2H-pyran-3-yl)ethyl)-2-oxoimidazolidine-4-carboxamide], the midpoint of inhibition, the IC50, lay at 386 nM.

Regarding `O=C1NC[C@@H](C(=O)NC(CC2CCCOC2)c2ccc(F)c(Cl)c2F)N1` (single isomer, unassigned) [Example 26D, (S)-N-((R or S)-1-(3-chloro-2,4-difluorophenyl)-2-((R or S)-tetrahydro-2H-pyran-3-yl)ethyl)-2-oxoimidazolidine-4-carboxamide], the midpoint of inhibition, the IC50, lay at 7830 nM.

In turn, `O=C1NC[C@@H](C(=O)NC(c2ccc(F)c(Cl)c2F)C23CC(C(F)(F)F)(C2)C3)N1` (single isomer, unassigned) [Example 27A, (4S)—N—((R or S)-(3-chloro-2,4-difluorophenyl)(3-(trifluoromethyl)bicyclo[1.1.1]pentan-1-yl)methyl)-2-oxoimidazolidine-4-carboxamide] gave an IC50 of 5.8 nM.

With `O=C1NC[C@@H](C(=O)NC(c2ccc(F)c(Cl)c2F)C23CC(C(F)(F)F)(C2)C3)N1` (single isomer, unassigned) [Example 27B, (4S)—N—((R or S)-(3-chloro-2,4-difluorophenyl)(3-(trifluoromethyl)bicyclo[1.1.1]pentan-1-yl)methyl)-2-oxoimidazolidine-4-carboxamide], the IC50 is 244 nM.

As to `O=C1NC[C@@H](C(=O)NC(c2ccc(F)c(Cl)c2)c2ccn(CC(F)(F)F)n2)N1` (single isomer, unassigned) [Example 28A, (4S)-N-{(R or S)-(3-chloro-4-fluorophenyl)[1-(2,2,2-trifluoroethyl)-1H-pyrazol-3-yl]methyl}-2-oxoimidazolidine-4-carboxamide], the IC50 came to 633 nM.

With `O=C1NC[C@@H](C(=O)NC(c2ccc(F)c(Cl)c2)c2ccn(CC(F)(F)F)n2)N1` (single isomer, unassigned) [Example 28B, (4S)-N-{(R or S)-(3-chloro-4-fluorophenyl)[1-(2,2,2-trifluoroethyl)-1H-pyrazol-3-yl]methyl}-2-oxoimidazolidine-4-carboxamide], the IC50 was 436 nM.

The molecule `O=C1NC[C@@H](C(=O)NC(COC2CCC(F)(F)CC2)c2ccc(F)c(Cl)c2)N1` (single isomer, unassigned) [Example 29A, (4S)-N-{1-((R or S)-3-chloro-4-fluorophenyl)-2-[(4,4-difluoro-cyclohexyl)oxy]ethyl}-2-oxoimidazolidine-4-carboxamide] showed an IC50 of 110 nM.

On to `O=C1NC[C@@H](C(=O)NC(COC2CCC(F)(F)CC2)c2ccc(F)c(Cl)c2)N1` (single isomer, unassigned) [Example 29B, (4S)-N-{1-((R or S)-3-chloro-4-fluorophenyl)-2-[(4,4-difluoro-cyclohexyl)oxy]ethyl}-2-oxoimidazolidine-4-carboxamide], for which it took 161 nM to reach half-maximal inhibition (IC50). This IC50 and that of the molecule before are within 1.5-fold of each other.

With `CC1(C)CC(C(NC(=O)[C@@H]2CNC(=O)N2)c2ccc(F)c(Cl)c2F)C1` (single isomer, unassigned) [Example 30A, (4S)-N-[(R or S)-(3-chloro-2,4-di-fluoro-phenyl)(3,3-dimethylcyclobutyl)meth-yl]-2-oxoimidazolidine-4-carboxamide], the IC50 stood at 4.6 nM.

The molecule `CC1(C)CC(C(NC(=O)[C@@H]2CNC(=O)N2)c2ccc(F)c(Cl)c2F)C1` (single isomer, unassigned) [Example 30B, (4S)-N-[(R or S)-(3-chloro-2,4-di-fluorophenyl)(3,3-dimethylcyclobutyl)meth-yl]-2-oxoimidazolidine-4-carboxamide] gave an IC50 of 458 nM.

Turning to `Cn1nc(C(F)(F)F)cc1C(NC(=O)[C@@H]1CNC(=O)N1)c1ccc(F)c(Cl)c1` (single isomer, unassigned) [Example 31A, (S)-N-((R or S)-(3-chloro-4-fluorophenyl)(1-methyl-3-(tri-fluoromethyl)-1H-pyrazol-5-yl)methyl)-2-oxoimidazolidine-4-carboxamide], the IC50 stood at 5.2 nM.

The molecule `Cn1nc(C(F)(F)F)cc1C(NC(=O)[C@@H]1CNC(=O)N1)c1ccc(F)c(Cl)c1` (single isomer, unassigned) [Example 31B, (S)-N-((R or S)-(3-chloro-4-fluorophenyl)(1-methyl-3-(tri-fluoromethyl)-1H-pyrazol-5-yl)methyl)-2-oxoimidazolidine-4-carboxamide] gave an IC50 of 268 nM.

In turn, `O=C1NC[C@@H](C(=O)NC(c2ccc(F)c(Cl)c2)[C@H]2CC[C@H](C(F)(F)F)CC2)N1` (single isomer, unassigned) [Example 32A, (4S)—N—((R or S)-(3-chloro-4-fluorophenyl)(trans-4-(trifluoromethyl)cyclohexyl)methyl)-2-oxoimidazolidine-4-carboxamide] gave an IC50 of 3.4 nM. Against the preceding molecule, the IC50 is about 79-fold lower.
